The record followed here is patent publication US20210277003A1, “OGA INHIBITOR COMPOUNDS” (Janssen Pharmaceutica NV, priority 2018, published 2021).

This assay has as its target T1, recombinant human Meningioma Expressed Antigen 5 (MGEA5), also referred to as O-GlcNAcase (OGA) (Homo sapiens, UniProt O60502).
T1 construct: Full length OGA enzyme was purchased at OnGene (cat #TP322411); purchased OnGene (so in the source)
T1 sequence (O60502 1-916): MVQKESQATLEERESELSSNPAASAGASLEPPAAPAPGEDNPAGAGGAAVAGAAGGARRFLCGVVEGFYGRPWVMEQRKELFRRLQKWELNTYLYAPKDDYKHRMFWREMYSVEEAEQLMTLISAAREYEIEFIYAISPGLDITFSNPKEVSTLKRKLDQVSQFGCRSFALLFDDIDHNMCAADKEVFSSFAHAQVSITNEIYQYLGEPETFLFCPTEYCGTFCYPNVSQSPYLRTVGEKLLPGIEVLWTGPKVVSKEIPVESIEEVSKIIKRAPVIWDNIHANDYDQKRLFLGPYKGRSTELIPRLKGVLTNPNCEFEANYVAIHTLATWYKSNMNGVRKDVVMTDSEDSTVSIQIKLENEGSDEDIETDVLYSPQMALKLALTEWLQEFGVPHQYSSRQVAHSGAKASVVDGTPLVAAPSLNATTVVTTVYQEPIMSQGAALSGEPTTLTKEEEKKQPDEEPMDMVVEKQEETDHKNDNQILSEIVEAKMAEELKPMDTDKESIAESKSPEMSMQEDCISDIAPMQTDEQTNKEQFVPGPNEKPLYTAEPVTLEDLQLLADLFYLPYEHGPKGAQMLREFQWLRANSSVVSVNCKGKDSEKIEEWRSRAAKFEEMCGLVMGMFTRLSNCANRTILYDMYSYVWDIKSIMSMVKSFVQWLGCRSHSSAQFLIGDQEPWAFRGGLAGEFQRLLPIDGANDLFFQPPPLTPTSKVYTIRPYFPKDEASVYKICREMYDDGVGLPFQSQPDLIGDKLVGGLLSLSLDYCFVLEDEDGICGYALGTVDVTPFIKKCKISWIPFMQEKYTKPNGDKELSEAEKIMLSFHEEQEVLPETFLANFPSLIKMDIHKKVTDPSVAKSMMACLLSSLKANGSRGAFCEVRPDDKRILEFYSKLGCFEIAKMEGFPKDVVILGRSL
Description: OGA biochemical assay: inhibition of hydrolysis of fluorescein mono-ß-D-N-Acetyl-Glucosamine (FM-GlcNAc), fluorescence readout. To be noted: FM-GlcNAc substrate; for Emax: read-out: Enzymatic Emax (%); for IC50: read-out: Enzymatic hOGA, pIC50 (converted). From the text:
The assay is based on the inhibition of the hydrolysis of fluorescein mono-ß-D-N-Acetyl-Glucosamine (FM-GlcNAc) (Mariappa et al. 2015, Biochem J 470:255) by the recombinant human Meningioma Expressed Antigen 5 (MGEA5), also referred to as O-GlcNAcase (OGA). The hydrolysis FM-GlcNAc (Marker Gene technologies, cat #M1485) results in the formation of ß-D-N-glucosamineacetate and fluorescein. The fluorescence of the latter can be measured at excitation wavelength 485 nm and emission wavelength 538 nm. An increase in enzyme activity results in an increase in fluorescence signal. Full length OGA enzyme was purchased at OnGene (cat #TP322411). The enzyme was stored in 25 mM Tris.HCl, pH 7.3, 100 mM glycine, 10% glycerol at −20° C. Thiamet G and GlcNAcStatin were tested as reference compounds (Yuzwa et al. 2008 Nature Chemical Biology 4:483; Yuzwa et al. 2012 Nature Chemical Biology 8:393). The assay was performed in 200 mM Citrate/phosphate buffer supplemented with 0.005% Tween-20. 35.6 g Na2HPO4 2 H2O (Sigma, #C0759) were dissolved in 1 L water to obtain a 200 mM solution. 19.2 g citric acid (Merck, #1.06580) was dissolved in 1 L water to obtain a 100 mM solution. pH of the sodium phosphate solution was adjusted with the citric acid solution to 7.2. The buffer to stop the reaction consists of a 500 mM Carbonate buffer, pH 11.0. 734 mg FM-GlcNAc were dissolved in 5.48 mL DMSO to obtain a 250 mM solution and was stored at −20° C. OGA was used at a 2 nM concentration and FM-GlcNAc at a 100 uM final concentration. Dilutions were prepared in assay buffer. 50 nl of a compound dissolved in DMSO was dispensed on Black Proxiplate™ 384 Plus Assay plates (Perkin Elmer, #6008269) and 3 μl fl-OGA enzyme mix added subsequently. Plates were pre-incubated for 60 min at room temperature and then 2 μl FM-GlcNAc substrate mix added. […] Plates were briefly centrifuged for 1 min at 1000 rpm and incubate at room temperature for 6 h. To stop the reaction 5 μl STOP buffer were added and plates centrifuge again 1 min at 1000 rpm. Fluorescence was quantified in the Thermo Scientific Fluoroskan Ascent or the PerkinElmer EnVision with excitation wavelength 485 nm and emission wavelength 538 nm. For analysis a best-fit curve is fitted by a minimum sum of squares method. From this an IC50 value and Hill coefficient was obtained. High control (no inhibitor) and low control (saturating concentrations of standard inhibitor) were used to define the minimum and maximum values.

The Emax is the size of the effect at its maximum, as opposed to the concentration needed.

Turning to `Cc1ccnc(C)c1Nc1nccc2c1ccn2CC1CC1(F)F` (stereo not drawn) [Compound 2], the maximal effect (Emax) was 99% and the IC50 is 91.2 nM.

Regarding `CN(C)S(=O)(=O)Cn1ccc2c(Nc3c(Cl)cncc3Cl)nccc21` [Compound 3], the Emax was 92% and the IC50 is 933 nM.

On to `Cc1ccnc(C)c1Nc1nccc2c1ccn2CC1COC1` [Compound 4], for which the “Enzymatic hOGA; pIC50” value is 6.03 and the Emax worked out at 93%.

Take `CCCCn1ccc2c(Nc3c(C)cnnc3C)nccc21` [Compound 17]: the “Enzymatic hOGA; pIC50” value is 6.94 and the Emax was 102%.

For `CCCCn1ccc2c(Nc3c(C)cnc4c3OCCO4)nccc21` [Compound 20], the “Enzymatic hOGA; pIC50” value came to 7.4 and the maximum response (Emax) was determined as 102%.

As to `Cc1ccnc(C)c1Nc1nccc2c1ccn2CCC1CCO1` (stereo not drawn) [Compound 21], the “Enzymatic hOGA; pIC50” value is given as 6.61 and the maximal effect (Emax) is 96%.

As for `Cc1ccnc(C)c1Nc1nccc2c1ccn2CC1(C)COC1` [Compound 22], the “Enzymatic hOGA; pIC50” value came to 6.54 and the Emax was found to be 99%.

In the case of `COCCn1ccc2c(Nc3c(Cl)cncc3Cl)nccc21` [Compound 28], the Emax was determined as 83% and the IC50 was 2190 nM.

For `Cc1cncc(C)c1Nc1nccc2c1ccn2CC1COC1` [Compound 29], the Emax was 88% and the IC50 was 1620 nM.

On to `Cc1cncc(Cl)c1Nc1nccc2c1ccn2CC1COC1` [Compound 30], for which the Emax is 93% and the IC50 was 1410 nM.

For the compound `Cc1cncc(C(C)C)c1Nc1nccc2c1ccn2CC1COC1` [Compound 32], the Emax is 98% and the IC50 was 234 nM.

For the compound `CCCC(C)n1ccc2c(Nc3c(C)cncc3C)nccc21` (stereo not drawn) [Compound 33], the Emax was found to be 99% and the IC50 is 309 nM.

Regarding `N#CCCCn1ccc2c(Nc3c(Cl)cncc3Cl)nccc21` [Compound 36], the Emax was found to be 100% and the IC50 was 275 nM.

Consider `CCn1ccc2c(Nc3c(C)cc(F)cc3C)nccc21` [Compound 37], for which the Emax was 101% and the IC50 was 251 nM.

In the case of `Cc1ccnc(C)c1Nc1nccc2c1ccn2CC(F)(F)F` [Compound 79], the maximal response (Emax) turned out to be 101% and the IC50 was 138 nM.

For `CCC(O)Cn1ccc2c(Nc3c(C)ccnc3C)nccc21` (stereo not drawn) [Compound 93], the “Enzymatic hOGA; pIC50” value is recorded as 7.44 and the Emax worked out at 101%.

`Cc1ccnc(C)c1Nc1nccc2c1ccn2CCC1CC1(F)F` (stereo not drawn) [Compound 94]: the “Enzymatic hOGA; pIC50” value came to 6.86 and the Emax came to 99%.

As to `Clc1cccc(Cl)c1Nc1nccc2c1ccn2CCC1COC1` [Compound 98], the “Enzymatic hOGA; pIC50” value is on record as 6.54 and the Emax was determined as 98%.

Regarding `CCCCn1ccc2c(Nc3c(C)cc(N(C)C(C)=O)cc3C)nccc21` [Compound 102], the Emax came out at 99% and the IC50 is 229 nM.

Turning to `Cc1ccnc(C)c1Nc1nccc2c1ccn2CCN1CC(F)(F)C1` [Compound 103], the “Enzymatic hOGA; pIC50” value is given as 6.12 and the Emax is 99.7%.

`CCC(Cn1ccc2c(Nc3c(Cl)cc(F)cc3Cl)nccc21)OC` (stereo not drawn) [Compound 104]: the “Enzymatic hOGA; pIC50” value is 6.14 and the Emax is 96.9%.

For the compound `CCC(C)(O)Cn1ccc2c(Nc3c(Cl)cc(F)cc3Cl)nccc21` (stereo not drawn) [Compound 106], the “Enzymatic hOGA; pIC50” value is 6.64 and the maximum response (Emax) was 103%.

For the compound `CCC(C)(F)Cn1ccc2c(Nc3c(C)ccnc3C)nccc21` (stereo not drawn) [Compound 108], the “Enzymatic hOGA; pIC50” value came out at 7.32 and the Emax stood at 102%.

Regarding `CCC(C)(F)Cn1ccc2c(Nc3c(Cl)cc(F)cc3Cl)nccc21` (stereo not drawn) [Compound 111], the “Enzymatic hOGA; pIC50” value is 7.62 and the Emax is 102%.

In the case of `Cn1cnc(Cn2ccc3c(Nc4c(Cl)cc(F)cc4Cl)nccc32)c1` [Compound 120], the “Enzymatic hOGA; pIC50” value stood at 6.77 and the Emax was 99.2%.

Consider `Fc1cc(Cl)c(Nc2nccc3c2ccn3Cc2cocn2)c(Cl)c1` [Compound 121], for which the “Enzymatic hOGA; pIC50” value worked out at 7.25 and the Emax stood at 103%.

For the compound `Fc1cc(Cl)c(Nc2nccc3c2ccn3Cc2cnco2)c(Cl)c1` [Compound 142], the “Enzymatic hOGA; pIC50” value was determined as 6.56 and the Emax is 99.2%.

Consider `Cc1cnc(Cn2ccc3c(Nc4c(Cl)cc(F)cc4Cl)nccc32)o1` [Compound 143], for which the “Enzymatic hOGA; pIC50” value is 7.41 and the maximum response (Emax) worked out at 100%.

For the compound `Fc1cnc(-n2ccc3c(Nc4c(Cl)cccc4Cl)nccc32)nc1` [Compound 164], the Emax was 101% and the IC50 is 37.2 nM.

As for `Cc1ccc(-n2ccc3c(Nc4c(Cl)cccc4Cl)nccc32)nc1` [Compound 165], the Emax was 101% and the IC50 is 38 nM.

Take `Cn1ccnc1Cn1ccc2c(Nc3c(Cl)cccc3Cl)nccc21` [Compound 168]: the Emax amounted to 98.1% and the IC50 was 562 nM.

As to `N#Cc1cnc(-n2ccc3c(Nc4c(Cl)cc(F)cc4Cl)nccc32)[nH]1` [Compound 181], the Emax turned out to be 92.7% and the IC50 is 794 nM.

Take `Fc1cc(Cl)c(Nc2nccc3c2ccn3-c2ncco2)c(Cl)c1` [Compound 182]: the maximum response (Emax) is 97.8% and the IC50 is 309 nM.

Take `Fc1cc(Cl)c(Nc2nccc3c2ccn3-c2c[nH]cn2)c(Cl)c1` [Compound 190]: the Emax is 96.3% and the IC50 is 562 nM.

As for `Clc1cccc(Cl)c1Nc1nccc2c1ccn2Cc1ncc[nH]1` [Compound 191], the Emax is 98.8% and the IC50 is 229 nM.

Take `Cc1ncnc(C(C)C)c1Nc1nccc2c1ccn2CCC(F)(F)F` [Compound 192]: the Emax worked out at 98.3% and the IC50 is 182 nM.
